Test results published in PubChem BioAssay AID1918942 (Molecular Pharmacology Branch, DTP, NCI, 2023).
pIC50: −log10 of the molar value.

System: 743489-274-T-PDC complex spheroid viability
Test: Anticancer human tumor 743489-274-T-PDC patient-derived renal cell carcinoma cell line growth inhibition
Conditions: for pIC50: curve of first compound; for viability, T/C: stronger effect = lower value
Summary of the method: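 Multicellular complex spheroids of tumor cells with human endothelial cells (HUVEC) and mesenchymal stem cells; the LSD1 inhibitor iadademstat was combined with standard-of-care or investigational agents. Top concentration at or near clinical Cmax, half-log dilutions; final DMSO ≤0.25%.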

[1] = second compound 0.1 µM, first compound 0.00949 µM
[2] = second compound 0.1 µM, first compound 0.03 µM
[3] = second compound 0.1 µM, first compound 0.0949 µM
[4] = second compound 0.1 µM, first compound 0.3 µM
[5] = second compound 0.1 µM, first compound 0.949 µM
[6] = second compound 0.1 µM, first compound 3 µM
[7] = second compound 0.316 µM, first compound 0.00949 µM
[8] = second compound 0.316 µM, first compound 0.03 µM
[9] = second compound 0.316 µM, first compound 0.0949 µM
[10] = second compound 0.316 µM, first compound 0.3 µM
[11] = second compound 0.316 µM, first compound 0.949 µM
[12] = second compound 0.316 µM, first compound 3 µM
[13] = second compound 1 µM, first compound 0.00949 µM
[14] = second compound 1 µM, first compound 0.03 µM
[15] = second compound 1 µM, first compound 0.0949 µM
[16] = second compound 1 µM, first compound 0.3 µM
[17] = second compound 1 µM, first compound 0.949 µM
[18] = second compound 1 µM, first compound 3 µM
[19] = second compound 3.16 µM, first compound 0.00949 µM
[20] = second compound 3.16 µM, first compound 0.03 µM
[21] = second compound 3.16 µM, first compound 0.0949 µM
[22] = second compound 3.16 µM, first compound 0.3 µM
[23] = second compound 3.16 µM, first compound 0.949 µM
[24] = second compound 3.16 µM, first compound 3 µM
[25] = second compound 10 µM, first compound 0.00949 µM
[26] = second compound 10 µM, first compound 0.03 µM
[27] = second compound 10 µM, first compound 0.0949 µM
[28] = second compound 10 µM, first compound 0.3 µM
[29] = second compound 10 µM, first compound 0.949 µM
[30] = second compound 10 µM, first compound 3 µM
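Note: spheroids exposed to compounds for 7 days before readout.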
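Throughout, for viability, T/C: 100% = DMSO vehicle control wells.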

## Cn1ncnc1C1c2n[nH]c(=O)c3cc(F)cc(c23)NC1c1ccc(F)cc1 (stereo not given) + NC1CCC(NC2CC2c2ccccc2)CC1
Second compound 0.1 µM
  pIC50: < 7.00
Second compound 0.316 µM
  pIC50: < 7.00
Second compound 1 µM
  pIC50: < 7.00
Second compound 3.16 µM
  pIC50: < 7.00
Second compound 10 µM
  pIC50: < 7.00
Second compound 0.1 µM, first compound 0.000316 µM
  viability, T/C: 121%
Second compound 0.1 µM, first compound 0.001 µM
  viability, T/C: 99.1%
Second compound 0.1 µM, first compound 0.00316 µM
  viability, T/C: 100%
Second compound 0.1 µM, first compound 0.01 µM
  viability, T/C: 103%
Second compound 0.1 µM, first compound 0.0316 µM
  viability, T/C: 101%
Second compound 0.1 µM, first compound 0.1 µM
  viability, T/C: 86.2%
Second compound 0.316 µM, first compound 0.000316 µM
  viability, T/C: 105%
Second compound 0.316 µM, first compound 0.001 µM
  viability, T/C: 102%
Second compound 0.316 µM, first compound 0.00316 µM
  viability, T/C: 93.6%
Second compound 0.316 µM, first compound 0.01 µM
  viability, T/C: 115%
Second compound 0.316 µM, first compound 0.0316 µM
  viability, T/C: 92%
Second compound 0.316 µM, first compound 0.1 µM
  viability, T/C: 103%
Second compound 1 µM, first compound 0.000316 µM
  viability, T/C: 104%
Second compound 1 µM, first compound 0.001 µM
  viability, T/C: 108%
Second compound 1 µM, first compound 0.00316 µM
  viability, T/C: 90.2%
Second compound 1 µM, first compound 0.01 µM
  viability, T/C: 81.7%
Second compound 1 µM, first compound 0.0316 µM
  viability, T/C: 90.2%
Second compound 1 µM, first compound 0.1 µM
  viability, T/C: 84%
Second compound 3.16 µM, first compound 0.000316 µM
  viability, T/C: 101%
Second compound 3.16 µM, first compound 0.001 µM
  viability, T/C: 101%
Second compound 3.16 µM, first compound 0.00316 µM
  viability, T/C: 101%
Second compound 3.16 µM, first compound 0.01 µM
  viability, T/C: 103%
Second compound 3.16 µM, first compound 0.0316 µM
  viability, T/C: 101%
Second compound 3.16 µM, first compound 0.1 µM
  viability, T/C: 94%
Second compound 10 µM, first compound 0.000316 µM
  viability, T/C: 111%
Second compound 10 µM, first compound 0.001 µM
  viability, T/C: 98%
Second compound 10 µM, first compound 0.00316 µM
  viability, T/C: 91.7%
Second compound 10 µM, first compound 0.01 µM
  viability, T/C: 103%
Second compound 10 µM, first compound 0.0316 µM
  viability, T/C: 90.4%
Second compound 10 µM, first compound 0.1 µM
  viability, T/C: 97.7%

## NS(=O)(=O)OCC1CC(n2ccc3c(NC4CCc5ccccc54)ncnc32)CC1O (stereo not given) + NC1CCC(NC2CC2c2ccccc2)CC1
Second compound 0.1 µM
  pIC50: < 5.52
Second compound 0.316 µM
  pIC50: < 5.52
Second compound 1 µM
  pIC50: < 5.52
Second compound 3.16 µM
  pIC50: < 5.52
Second compound 10 µM
  pIC50: < 5.52
[1]
  viability, T/C: 98.6%
[2]
  viability, T/C: 103%
[3]
  viability, T/C: 132%
[4]
  viability, T/C: 133%
[5]
  viability, T/C: 135%
[6]
  viability, T/C: 144%
[7]
  viability, T/C: 92.8%
[8]
  viability, T/C: 103%
[9]
  viability, T/C: 121%
[10]
  viability, T/C: 135%
[11]
  viability, T/C: 146%
[12]
  viability, T/C: 147%
[13]
  viability, T/C: 114%
[14]
  viability, T/C: 108%
[15]
  viability, T/C: 113%
[16]
  viability, T/C: 142%
[17]
  viability, T/C: 135%
[18]
  viability, T/C: 121%
[19]
  viability, T/C: 98.5%
[20]
  viability, T/C: 107%
[21]
  viability, T/C: 128%
[22]
  viability, T/C: 141%
[23]
  viability, T/C: 151%
[24]
  viability, T/C: 151%
[25]
  viability, T/C: 90.1%
[26]
  viability, T/C: 105%
[27]
  viability, T/C: 132%
[28]
  viability, T/C: 135%
[29]
  viability, T/C: 129%
[30]
  viability, T/C: 102%

## O=C(C=Cc1cccc(S(=O)(=O)Nc2ccccc2)c1)NO + NC1CCC(NC2CC2c2ccccc2)CC1
Second compound 0.1 µM
  pIC50: < 5.52
Second compound 0.316 µM
  pIC50: 5.55
Second compound 1 µM
  pIC50: 5.65
Second compound 3.16 µM
  pIC50: < 5.52
Second compound 10 µM
  pIC50: 5.72
[1]
  viability, T/C: 103%
[2]
  viability, T/C: 94.4%
[3]
  viability, T/C: 84.1%
[4]
  viability, T/C: 67.9%
[5]
  viability, T/C: 81.7%
[6]
  viability, T/C: 62.1%
[7]
  viability, T/C: 102%
[8]
  viability, T/C: 96.5%
[9]
  viability, T/C: 87.8%
[10]
  viability, T/C: 80.9%
[11]
  viability, T/C: 69.3%
[12]
  viability, T/C: 47.4%
[13]
  viability, T/C: 100%
[14]
  viability, T/C: 107%
[15]
  viability, T/C: 98.5%
[16]
  viability, T/C: 78.7%
[17]
  viability, T/C: 78.5%
[18]
  viability, T/C: 41.2%
[19]
  viability, T/C: 108%
[20]
  viability, T/C: 105%
[21]
  viability, T/C: 95.5%
[22]
  viability, T/C: 78.2%
[23]
  viability, T/C: 69.2%
[24]
  viability, T/C: 51.9%
[25]
  viability, T/C: 109%
[26]
  viability, T/C: 96.2%
[27]
  viability, T/C: 106%
[28]
  viability, T/C: 74.9%
[29]
  viability, T/C: 65.6%
[30]
  viability, T/C: 41.4%
